# Measured values: PubChem BioAssay (NCI)
#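 96-well plates; 48 h exposure; 5 concentrations. Endpoints by linear interpolation between flanking doses. Not reached: highest tested concentration assigned. GI50 = concentration required for 50% inhibition of growth. TGI denotes the concentration required for complete inhibition of growth.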
# Assays:
# Experiment in all cases: inhibition of tumour cell growth, NCI panel, 48 h
# MALME-3M melanoma = test system: MALME-3M melanoma
# LOX IMVI melanoma = test system: LOX IMVI melanoma
# NCI-H460 lung = test system: NCI-H460 lung
# EKVX NSCLC = test system: EKVX NSCLC
# MDA-MB-231 breast = test system: MDA-MB-231 breast
# HT29 colon = test system: HT29 colon
# K-562 leukemia = test system: K-562 leukemia
# CCRF-CEM leukemia = test system: CCRF-CEM leukemia
# 786-0 renal = test system: 786-0 renal
# HS 578T breast = test system: HS 578T breast
# SN12C renal = test system: SN12C renal
# UACC-62 melanoma = test system: UACC-62 melanoma
# RXF 393 renal = test system: RXF 393 renal
# MCF7 breast = test system: MCF7 breast
# OVCAR-8 ovarian = test system: OVCAR-8 ovarian
# SNB-75 CNS = test system: SNB-75 CNS
# A498 renal = test system: A498 renal
# ACHN renal = test system: ACHN renal
# SF-539 CNS = test system: SF-539 CNS
# HOP-92 NSCLC = test system: HOP-92 NSCLC
# SK-MEL-28 melanoma = test system: SK-MEL-28 melanoma
# UO-31 renal = test system: UO-31 renal
# MOLT-4 leukemia = test system: MOLT-4 leukemia
# NCI/ADR-RES ovarian = test system: NCI/ADR-RES ovarian
# OVCAR-5 ovarian = test system: OVCAR-5 ovarian
# HCT-116 colon = test system: HCT-116 colon
# DU-145 prostate = test system: DU-145 prostate
# SF-268 CNS = test system: SF-268 CNS
# PC-3 prostate = test system: PC-3 prostate
# COLO 205 colon = test system: COLO 205 colon
# TK-10 renal = test system: TK-10 renal
# SR leukemia = test system: SR leukemia
# SK-MEL-2 melanoma = test system: SK-MEL-2 melanoma
# OVCAR-3 ovarian = test system: OVCAR-3 ovarian
# MDA-MB-435 = test system: MDA-MB-435
# SK-MEL-5 melanoma = test system: SK-MEL-5 melanoma
# A549 NSCLC = test system: A549 NSCLC
# U251 CNS = test system: U251 CNS
# HL-60(TB) leukemia = test system: HL-60(TB) leukemia
# NCI-H522 lung = test system: NCI-H522 lung
# UACC-257 melanoma = test system: UACC-257 melanoma
# KM12 colon = test system: KM12 colon
# T-47D breast = test system: T-47D breast
# SW-620 colon = test system: SW-620 colon
# BT-549 breast = test system: BT-549 breast
# OVCAR-4 ovarian = test system: OVCAR-4 ovarian
# HCT-15 colon = test system: HCT-15 colon
# NCI-H23 lung = test system: NCI-H23 lung
# HOP-62 NSCLC = test system: HOP-62 NSCLC
# SF-295 CNS = test system: SF-295 CNS
# CAKI-1 renal = test system: CAKI-1 renal
# M14 melanoma = test system: M14 melanoma
# SK-OV-3 ovarian = test system: SK-OV-3 ovarian
# IGROV1 ovarian = test system: IGROV1 ovarian
# NCI-H226 lung = test system: NCI-H226 lung
# RPMI-8226 leukemia = test system: RPMI-8226 leukemia
# SNB-19 CNS = test system: SNB-19 CNS
# HCC-2998 colon = test system: HCC-2998 colon
compound,measurement,setting,value
NC1(C(=O)O)CSSC1,GI50,MALME-3M melanoma,2.77 µM
same,TGI,MALME-3M melanoma,7.12 µM
same,GI50,LOX IMVI melanoma,3.24 µM
same,TGI,LOX IMVI melanoma,14.8 µM
same,GI50,NCI-H460 lung,3 µM
same,TGI,NCI-H460 lung,> 100 µM
same,GI50,EKVX NSCLC,4.49 µM
same,TGI,EKVX NSCLC,35 µM
same,GI50,MDA-MB-231 breast,17.1 µM
same,TGI,MDA-MB-231 breast,44.3 µM
same,GI50,HT29 colon,3.84 µM
same,TGI,HT29 colon,31.7 µM
same,GI50,K-562 leukemia,3.7 µM
same,TGI,K-562 leukemia,> 100 µM
same,GI50,CCRF-CEM leukemia,13.2 µM
same,TGI,CCRF-CEM leukemia,> 100 µM
same,GI50,786-0 renal,21.6 µM
same,TGI,786-0 renal,> 100 µM
same,GI50,HS 578T breast,3.91 µM
same,TGI,HS 578T breast,> 100 µM
same,GI50,SN12C renal,3 µM
same,TGI,SN12C renal,12.3 µM
same,GI50,UACC-62 melanoma,4.53 µM
same,TGI,UACC-62 melanoma,20.1 µM
same,GI50,RXF 393 renal,3.13 µM
same,TGI,RXF 393 renal,11.1 µM
same,GI50,MCF7 breast,3.65 µM
same,TGI,MCF7 breast,23.9 µM
same,GI50,OVCAR-8 ovarian,3.6 µM
same,TGI,OVCAR-8 ovarian,24.4 µM
same,GI50,SNB-75 CNS,2.91 µM
same,TGI,SNB-75 CNS,21.5 µM
same,GI50,A498 renal,2.53 µM
same,TGI,A498 renal,7.27 µM
same,GI50,ACHN renal,3.63 µM
same,TGI,ACHN renal,14.2 µM
same,GI50,SF-539 CNS,7.55 µM
same,TGI,SF-539 CNS,> 100 µM
same,GI50,HOP-92 NSCLC,14.3 µM
same,TGI,HOP-92 NSCLC,68.7 µM
same,GI50,SK-MEL-28 melanoma,3.14 µM
same,TGI,SK-MEL-28 melanoma,10.7 µM
same,GI50,UO-31 renal,3.68 µM
same,TGI,UO-31 renal,34.4 µM
same,GI50,MOLT-4 leukemia,5.61 µM
same,TGI,MOLT-4 leukemia,> 100 µM
same,GI50,NCI/ADR-RES ovarian,3.46 µM
same,TGI,NCI/ADR-RES ovarian,27.7 µM
same,GI50,OVCAR-5 ovarian,33.2 µM
same,TGI,OVCAR-5 ovarian,90.1 µM
same,GI50,HCT-116 colon,4.53 µM
same,TGI,HCT-116 colon,84.5 µM
same,GI50,DU-145 prostate,7.63 µM
same,TGI,DU-145 prostate,> 100 µM
same,GI50,SF-268 CNS,7.6 µM
same,TGI,SF-268 CNS,> 100 µM
same,GI50,PC-3 prostate,21.5 µM
same,TGI,PC-3 prostate,> 100 µM
same,GI50,COLO 205 colon,11.8 µM
same,TGI,COLO 205 colon,27.1 µM
same,GI50,TK-10 renal,3.42 µM
same,TGI,TK-10 renal,24.3 µM
same,GI50,SR leukemia,17.8 µM
same,TGI,SR leukemia,> 100 µM
same,GI50,SK-MEL-2 melanoma,2.66 µM
same,TGI,SK-MEL-2 melanoma,7.95 µM
same,GI50,OVCAR-3 ovarian,4.75 µM
same,TGI,OVCAR-3 ovarian,59.3 µM
same,GI50,MDA-MB-435,3.54 µM
same,TGI,MDA-MB-435,13.9 µM
same,GI50,SK-MEL-5 melanoma,1.91 µM
same,TGI,SK-MEL-5 melanoma,3.68 µM
same,GI50,A549 NSCLC,3.37 µM
same,TGI,A549 NSCLC,> 100 µM
same,GI50,U251 CNS,3.58 µM
same,TGI,U251 CNS,22.6 µM
same,GI50,HL-60(TB) leukemia,2.82 µM
same,TGI,HL-60(TB) leukemia,11.9 µM
same,GI50,NCI-H522 lung,3.41 µM
same,TGI,NCI-H522 lung,17.7 µM
same,GI50,UACC-257 melanoma,3.85 µM
same,TGI,UACC-257 melanoma,22.7 µM
same,GI50,KM12 colon,11.9 µM
same,TGI,KM12 colon,80.9 µM
same,GI50,T-47D breast,32.1 µM
same,TGI,T-47D breast,> 100 µM
same,GI50,SW-620 colon,10.4 µM
same,TGI,SW-620 colon,> 100 µM
same,GI50,BT-549 breast,4.87 µM
same,TGI,BT-549 breast,40.2 µM
same,GI50,OVCAR-4 ovarian,5.44 µM
same,TGI,OVCAR-4 ovarian,46.5 µM
same,GI50,HCT-15 colon,3.88 µM
same,TGI,HCT-15 colon,84.7 µM
same,GI50,NCI-H23 lung,3.02 µM
same,TGI,NCI-H23 lung,14.8 µM
same,GI50,HOP-62 NSCLC,2.92 µM
same,TGI,HOP-62 NSCLC,9.83 µM
same,GI50,SF-295 CNS,2.35 µM
same,TGI,SF-295 CNS,8.25 µM
same,GI50,CAKI-1 renal,6.22 µM
same,TGI,CAKI-1 renal,40.5 µM
same,GI50,M14 melanoma,3.21 µM
same,TGI,M14 melanoma,11.8 µM
same,GI50,SK-OV-3 ovarian,20.3 µM
same,TGI,SK-OV-3 ovarian,82.5 µM
same,GI50,IGROV1 ovarian,3.91 µM
same,TGI,IGROV1 ovarian,29.9 µM
same,GI50,NCI-H226 lung,2.7 µM
same,TGI,NCI-H226 lung,8.82 µM
same,GI50,RPMI-8226 leukemia,16.8 µM
same,TGI,RPMI-8226 leukemia,50.8 µM
same,GI50,SNB-19 CNS,3.59 µM
same,TGI,SNB-19 CNS,84 µM
same,GI50,HCC-2998 colon,16.1 µM
same,TGI,HCC-2998 colon,77.5 µM
